{"source": "patent US7416840B2", "about": "“Replication of hepatitis C virus in non-hepatic epithelial and mouse hepatic cells” (priority 2002, dated 2008)", "key": {"SL1 cells": {"tested_on": "SL1 cells", "format": "cell-based, Homo sapiens (human)"}, "HCV subgenomic replicons [1]": {"tested_on": "HCV subgenomic replicons", "format": "cell-based"}, "HCV subgenomic replicons [2]": {"tested_on": "HCV subgenomic replicons", "format": "cell-based", "remark": "listed apart in the source"}, "IFN-β gene": {"tested_on": "IFN-β gene", "format": "cell-based, human", "details": "for expression of IFN-β: IFN-α alone"}, "eIF-2α": {"tested_on": "eIF-2α", "format": "cell-based, human", "details": "Huh7, GS4.1, HeLa, SL1 cells; 100 IU of IFN-α/ml 12 h; poly(I:C) transfection 3 h"}, "[3]": {"tested_on": "IFN-α response against the HCV replicon", "format": "cell-based, human", "details": "for viral RNA levels versus cells treated with IFN-α alone: 5 μM lactacystin or 1 μM epoxomicin 1 h before IFN-α for 6 h, both time points; for IFN response against HCV when inhibitor is added after induction: IFN-α for 10 h, then inhibitor for 12 h; for reduction of HCV RNA levels by IFN-α in the presence of proteasome inhibitor: inhibitor 1 h before IFN-α 100 IU/ml for 6 h, then 12 h"}, "Mx-1 gene": {"tested_on": "Mx-1 gene", "format": "cell-based, human", "details": "GS4.1 cells, with IFN-α"}, "HCV": {"tested_on": "HCV", "details": "HCV genotypes 2 and 3; cited from earlier work"}, "Kunjin virus replicons": {"tested_on": "Kunjin virus replicons", "format": "cell-based", "details": "KUNCD20 cells, 0.01 to 160 IU of IFN-α/ml, 72 h"}, "KUNCD20 cells": {"tested_on": "KUNCD20 cells", "assay": "Cell death in IFN-α-treated KUNCD20 cells, light microscopy or annexin V staining", "format": "cell-based, Homo sapiens (human)", "source_text": "To address this problem, the IFN response against HCV in SL1 cells was compared with that against the flavivirus Kunjin virus in HeLa cells. For this purpose a pool of HeLa cells, KUNCD20, expressing Kunjin virus subgenomic replicons lacking the structural genes, similar to the HCV subgenomic replicons was established (Khromykh, A. A., and E. G. Westaway. 1997. J. Virol. 71:1497-1505). The Kunjin virus RNA levels in these cells were approximately fivefold higher than those observed with HCV in SL1 cells. […] Importantly, cell death in IFN-α-treated KUNCD20 cells was not detected either by light microscopy or annexin V staining (results not shown)."}}, "note": "Entries after “also recorded” stand apart in the source; their conditions may differ. Read-outs that look alike come from different tables or passages of the source.", "data": [{"compound": "ZVAD-fluoromethyl ketone [ZVAD-FMK]", "values": [{"measurement": "prevention of IFN-α-induced cell death (apoptosis)", "setting": "SL1 cells; SL1 cells, 100 IU of IFN-α/ml with 20 μM ZVAD-FMK", "result": "could be prevented"}]}, {"compound": "C[C@@]1(O)[C@H](O)[C@@H](CO)O[C@H]1n1cnc2c(N)ncnc21", "note": "[2CMA, 2′-C-methyladenosine]", "values": [{"measurement": "viral RNA (vRNA), anti-HCV activity", "setting": "HCV subgenomic replicons [1]; SL1 (HeLa) cells, 10 μM, harvested at 6, 12, 24, 48, 72 hours", "result": "effectively inhibits HCV"}, {"measurement": "viral RNA (vRNA), anti-HCV activity", "setting": "HCV subgenomic replicons [2]; GS4.1 (Huh7) cells, 10 μM, harvested at 6, 12, 24, 48, 72 hours", "result": "effectively inhibits HCV"}]}, {"compound": "poly(I:C)", "values": [{"measurement": "IFN-β transcription", "setting": "IFN-β gene; HeLa and SL1 cells, poly(I:C) alone", "result": "induced"}, {"measurement": "induction of IFN-β mRNA", "setting": "IFN-β gene; Huh7, GS4.1 and other Huh7-derived cells, primed with IFN-α then transfected with poly(I:C)", "result": "only a weak induction of IFN-β was observed"}, {"measurement": "eIF-2α-P levels", "setting": "eIF-2α", "result": "augmented eIF-2α-P levels"}]}, {"compound": "CC[C@H](C)[C@H](NC(=O)[C@H]([C@@H](C)CC)N(C)C(C)=O)C(=O)N[C@H](C(=O)N[C@@H](CC(C)C)C(=O)[C@@]1(C)CO1)[C@@H](C)O", "note": "[Epoxomicin]", "values": [{"measurement": "viral RNA levels versus cells treated with IFN-α alone", "setting": "[3]; GS4.1 cells", "result": "significantly higher"}, {"measurement": "IFN response against HCV when inhibitor is added after induction", "setting": "[3]; GS4.1 cells", "result": "the IFN response against HCV remained effective"}, {"measurement": "reduction of HCV RNA levels by IFN-α in the presence of proteasome inhibitor", "setting": "[3]; GS4.1 cells", "result": 30, "unit": "%"}, {"measurement": "induction of IFN-induced Mx-1 (Mx-A) mRNA", "setting": "Mx-1 gene", "result": "did not inhibit induction of Mx-A"}]}, {"compound": "O=c1c(-c2ccc(O)cc2)coc2cc(O)cc(O)c12", "note": "[Genistein, genistein]", "values": [{"measurement": "inhibition of the IFN-α response against HCV replicon", "setting": "[3]; GS4.1 (Huh7) cells", "result": "antagonized the IFN-α response against the HCV replicon"}, {"measurement": "inhibition of the IFN response against HCV at increased drug concentration", "setting": "[3]; GS4.1 cells, concentration raised from 100 to 300 μM", "result": "complete inhibition of the IFN response against HCV"}, {"measurement": "induction of IFN-induced Mx-1 (Mx-A) mRNA", "setting": "Mx-1 gene", "result": "suppressed the induction of the IFN-induced Mx-1 gene"}]}, {"compound": "C[S+]([O-])c1ccc(-c2nc(-c3ccncc3)c(-c3ccc(F)cc3)[nH]2)cc1", "note": "(stereo not shown) [SB 203580]", "values": [{"measurement": "inhibition of the IFN-α response against HCV replicon", "setting": "[3]; GS4.1 (Huh7) cells", "result": "did not inhibit the IFN response at detectable levels"}]}, {"compound": "IFN-α", "values": [{"measurement": "apoptosis after IFN-α treatment", "setting": "HeLa cells; normal HeLa cells", "result": "did not undergo apoptosis"}, {"measurement": "response to IFN-α therapy", "setting": "HCV", "result": "≤ 80", "unit": "%"}, {"measurement": "cell death", "setting": "SL1 cells; SL1 and other HeLa derived cell lines, more than 30 IU of IFN-α/ml, between 6 and 20 h post treatment", "result": "induced cell death in a significant fraction of cells"}, {"measurement": "fraction of apoptotic cells (annexin V-FITC positive)", "setting": "SL1 cells; SL1 cells, 100 IU of IFN-α/ml, 24 h, flow cytometry", "result": "more than 30%"}, {"measurement": "IC50 of IFN-α (reduction of virus replication)", "setting": "HCV subgenomic replicons [1]; HeLa cell lines such as SL1, 72 h", "result": "~0.1", "unit": "IU/ml"}, {"measurement": "fold lower IC50 in HeLa cell lines than in Huh7-derived cell lines", "setting": "HCV subgenomic replicons [1]; HeLa vs Huh7-derived cell lines", "result": "approximately 10 fold"}, {"measurement": "drop of HCV RNA levels", "setting": "HCV subgenomic replicons [2]; GS4.1 cells, IFN-α 100 IU/ml for 6 h, within 18 h", "result": 70, "unit": "%"}, {"measurement": "Kunjin virus replicon RNA, inhibition of viral replication", "setting": "Kunjin virus replicons", "result": "only slightly inhibited viral replication"}, {"measurement": "cell death", "setting": "KUNCD20 cells", "result": "not detected"}, {"measurement": "expression of IFN-β", "setting": "IFN-β gene; HeLa cells", "result": "not in HeLa cells"}, {"measurement": "expression of IFN-β", "setting": "IFN-β gene; SL1 cells", "result": "could be induced"}, {"measurement": "eIF-2α-P levels", "setting": "eIF-2α", "result": "did not induce eIF-2α-P levels"}]}, {"compound": "Nc1nc(=O)n([C@@H]2O[C@H](CO)[C@@H](O)[C@H]2O)cc1O", "note": "[5-OH-cytidine]", "values": [{"measurement": "HCV RNA band intensity, antiviral activity", "setting": "HCV subgenomic replicons [1]; SL1 (HeLa) cells, indicated amounts, 72 hours", "result": "effectively inhibits HCV replication"}, {"measurement": "HCV RNA band intensity, antiviral activity", "setting": "HCV subgenomic replicons [2]; GS4.1 (Huh7) cells, indicated amounts, 72 hours", "result": "effectively inhibits HCV replication"}]}, {"compound": "C[C@@H]1C[C@@H]([C@H](O)CC2CC(=O)NC(=O)C2)C(=O)[C@@H](C)C1", "note": "[Cycloheximide]", "values": [{"measurement": "inhibition of the IFN-α response against HCV replicon", "setting": "[3]; GS4.1 (Huh7) cells", "result": "decline of viral RNA levels was reduced"}]}, {"compound": "CC(=O)N[C@@H](CSC(=O)[C@]1([C@@H](O)C(C)C)NC(=O)[C@H](C)[C@@H]1O)C(=O)O", "note": "[Lactacystin, lactacystin]", "values": [{"measurement": "viral RNA levels versus cells treated with IFN-α alone", "setting": "[3]; GS4.1 cells", "result": "significantly higher"}, {"measurement": "IFN response against HCV when inhibitor is added after induction", "setting": "[3]; GS4.1 cells", "result": "the IFN response against HCV remained effective"}, {"measurement": "reduction of HCV RNA levels by IFN-α in the presence of proteasome inhibitor", "setting": "[3]; GS4.1 cells", "result": 30, "unit": "%"}, {"measurement": "HCV RNA levels, drug alone", "setting": "HCV subgenomic replicons [2]; GS4.1 cells, higher doses, without IFN-α", "result": "slight reduction of HCV RNA levels"}, {"measurement": "induction of IFN-induced Mx-1 (Mx-A) mRNA", "setting": "Mx-1 gene", "result": "did not inhibit induction of Mx-A"}]}, {"compound": "O=C([O-])c1ccccc1O.[Na+]", "note": "[Sodium salicylate, sodium salicylate]", "values": [{"measurement": "inhibition of the IFN-α response against HCV replicon", "setting": "[3]", "result": "did not inhibit the IFN response at detectable levels"}]}, {"compound": "Nc1ncc2[nH]cnc2n1", "note": "[2-AP, 2-aminopurine]", "values": [{"measurement": "apoptosis", "setting": "HeLa cells; HeLa cells, treatment for more than 12 h", "result": "induced apoptosis"}, {"measurement": "inhibition of the IFN-α response against HCV replicon", "setting": "[3]; GS4.1 (Huh7) cells", "result": "did not block the IFN response against HCV; also recorded: no measurable effect on the IFN response against the HCV replicon"}]}]}
